According to ChEMBL document CHEMBL3217528, “Bicyclic imidazole-4-one derivatives: a new class of antagonists for the orphan G protein-coupled receptors GPR18 and GPR55” (Medchemcomm, 2014):
pIC50, pKi: −log10 of the molar value.

Legend:
[1] = target: T1, N-arachidonyl glycine receptor (Homo sapiens, UniProt Q14330); assay: Antagonist activity against human GPR18 expressed in CHO cells assessed as reduction in delta9-THC-induced beta-arrestin recruitment by beta-galactosidase enzyme fragment complementation method; type: cell-based
T1 sequence (Q14330 whole entry): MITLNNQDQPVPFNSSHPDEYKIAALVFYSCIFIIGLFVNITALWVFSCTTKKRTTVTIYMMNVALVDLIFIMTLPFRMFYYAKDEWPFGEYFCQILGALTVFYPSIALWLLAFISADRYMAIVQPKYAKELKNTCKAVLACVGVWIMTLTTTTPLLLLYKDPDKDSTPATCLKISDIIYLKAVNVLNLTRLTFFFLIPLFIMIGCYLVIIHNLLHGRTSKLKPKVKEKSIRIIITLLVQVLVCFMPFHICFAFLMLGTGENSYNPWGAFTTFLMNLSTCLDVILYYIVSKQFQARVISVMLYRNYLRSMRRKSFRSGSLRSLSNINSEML

[2] = target: Cannabinoid receptor 1 (Rattus norvegicus, UniProt P20272); assay: Displacement of [3H]CP55,940 from CB1 receptor in rat brain cortical membranes; type: cell membranes
[3] = target: T2, N-arachidonyl glycine receptor (Homo sapiens) (UniProt Q14330); assay: Antagonist activity against human GPR18 expressed in CHO cells assessed as reduction in delta9-THC-induced beta-arrestin recruitment at 10 uM by beta-galactosidase enzyme fragment complementation method; type: cell-based
T2 sequence (whole entry): T1 sequence (Q14330 whole entry)

[4] = target: Cannabinoid receptor 1 (Rattus norvegicus) (UniProt P20272); assay: Displacement of [3H]CP55,940 from CB1 receptor in rat brain cortical membranes at 10 uM; type: cell membranes
[5] = target: T3, Cannabinoid receptor 2 (Homo sapiens, UniProt P34972); assay: Displacement of [3H]CP55,940 from human recombinant CB2 receptor expressed in HEK293 cells; type: cell-based
[6] = target: T4, Cannabinoid receptor 1 (Homo sapiens, UniProt P21554); assay: Displacement of [3H]CP55,940 from human recombinant CB1 receptor expressed in CHO-K1 cells at 10 uM; type: cell-based
[7] = target: T3, Cannabinoid receptor 2; assay: Displacement of [3H]CP55,940 from human recombinant CB2 receptor expressed in HEK293 cells at 10 uM; type: cell-based
[8] = target: T4, Cannabinoid receptor 1; assay: Displacement of [3H]CP55,940 from human recombinant CB1 receptor expressed in CHO-K1 cells; type: cell-based
[9] = target: T5, G-protein coupled receptor 55 (Homo sapiens, UniProt Q9Y2T6); assay: Antagonist activity against human GPR55 expressed in CHO cells assessed as reduction in LPI-induced beta-arrestin recruitment by beta-galactosidase enzyme fragment complementation method; type: cell-based
[10] = target: T5, G-protein coupled receptor 55; assay: Agonist activity at human GPR55 expressed in CHO cells assessed as induction of LPI-induced beta-arrestin recruitment by beta-galactosidase enzyme fragment complementation method relative to LPI; type: cell-based; design: concentration or dose not given beside the values
[11] = target: T5, G-protein coupled receptor 55; assay: Antagonist activity against human GPR55 expressed in CHO cells assessed as reduction in LPI-induced beta-arrestin recruitment at 10 uM by beta-galactosidase enzyme fragment complementation method; type: cell-based
[12] = target: T2, N-arachidonyl glycine receptor (Homo sapiens); assay: Agonist activity at human GPR18 expressed in CHO cells assessed as induction of beta-arrestin recruitment by beta-galactosidase enzyme fragment complementation method relative to delta9-THC; type: cell-based; design: concentration or dose not given beside the values

T3 sequence (P34972 whole entry): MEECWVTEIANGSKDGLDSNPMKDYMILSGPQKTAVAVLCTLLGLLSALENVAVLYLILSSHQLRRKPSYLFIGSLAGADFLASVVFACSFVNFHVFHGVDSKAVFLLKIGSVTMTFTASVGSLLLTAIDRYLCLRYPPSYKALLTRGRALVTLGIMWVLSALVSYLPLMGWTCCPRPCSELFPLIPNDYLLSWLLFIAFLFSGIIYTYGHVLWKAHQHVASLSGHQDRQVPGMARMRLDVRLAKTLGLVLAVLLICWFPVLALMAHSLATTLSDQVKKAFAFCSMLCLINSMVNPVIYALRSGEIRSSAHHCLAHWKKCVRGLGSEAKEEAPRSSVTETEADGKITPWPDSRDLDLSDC
Sequence of Cannabinoid receptor 1 (Rattus norvegicus) (P20272 whole entry): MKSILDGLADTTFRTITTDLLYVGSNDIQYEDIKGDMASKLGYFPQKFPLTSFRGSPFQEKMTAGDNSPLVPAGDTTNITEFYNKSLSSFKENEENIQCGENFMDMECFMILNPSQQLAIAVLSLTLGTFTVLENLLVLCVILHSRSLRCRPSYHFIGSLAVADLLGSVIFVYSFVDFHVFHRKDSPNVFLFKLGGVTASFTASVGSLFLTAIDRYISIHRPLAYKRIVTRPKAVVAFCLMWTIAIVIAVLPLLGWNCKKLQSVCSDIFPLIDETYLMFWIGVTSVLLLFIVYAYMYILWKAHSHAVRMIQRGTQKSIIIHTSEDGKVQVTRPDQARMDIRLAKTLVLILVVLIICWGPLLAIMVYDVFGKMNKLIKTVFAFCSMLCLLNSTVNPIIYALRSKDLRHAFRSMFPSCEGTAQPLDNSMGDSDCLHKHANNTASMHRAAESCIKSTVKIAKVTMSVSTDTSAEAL
Sequence of Cannabinoid receptor 1 (Rattus norvegicus, UniProt P20272) (P20272 whole entry, the tested form may be a part): as the sequence (P20272 whole entry) above
T5 sequence (Q9Y2T6 whole entry, the tested form may be a part): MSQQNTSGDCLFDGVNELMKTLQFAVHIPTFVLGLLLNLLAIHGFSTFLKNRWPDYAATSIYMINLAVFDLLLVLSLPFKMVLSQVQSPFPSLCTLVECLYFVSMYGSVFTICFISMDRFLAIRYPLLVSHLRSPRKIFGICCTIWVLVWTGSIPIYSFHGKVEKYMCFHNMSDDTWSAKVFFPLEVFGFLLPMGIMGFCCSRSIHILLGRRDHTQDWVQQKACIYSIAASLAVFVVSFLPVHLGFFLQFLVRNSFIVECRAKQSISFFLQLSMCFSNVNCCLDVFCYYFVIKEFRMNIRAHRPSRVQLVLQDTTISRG
T4 sequence (P21554 whole entry): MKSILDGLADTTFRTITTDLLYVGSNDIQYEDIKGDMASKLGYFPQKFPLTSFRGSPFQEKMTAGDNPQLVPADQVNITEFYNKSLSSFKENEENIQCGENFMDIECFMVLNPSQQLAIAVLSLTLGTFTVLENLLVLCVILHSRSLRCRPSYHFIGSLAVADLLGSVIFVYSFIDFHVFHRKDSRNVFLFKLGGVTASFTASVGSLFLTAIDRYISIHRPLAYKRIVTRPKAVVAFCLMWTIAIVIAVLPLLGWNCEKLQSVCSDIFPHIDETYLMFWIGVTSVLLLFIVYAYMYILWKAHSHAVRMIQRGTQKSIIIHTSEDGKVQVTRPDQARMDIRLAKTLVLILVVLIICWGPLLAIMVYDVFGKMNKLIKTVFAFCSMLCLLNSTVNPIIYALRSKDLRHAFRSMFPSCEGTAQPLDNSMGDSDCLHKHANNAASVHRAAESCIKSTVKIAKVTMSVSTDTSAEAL

Structure (SMILES)	pIC50 [1]	pKi [2]	inhibition [3] [%]	inhibition [4] [%]	pKi [5]	inhibition [6] [%]	inhibition [7] [%]	pKi [8]	pIC50 [9]	Activity [10] [%]	inhibition [11] [%]	Activity [12] [%]
O=C1/C(=C/c2ccc(Br)cc2)N=C2SCCCN12	< 5.00	< 5.00	13	21	< 5.00	29	8	< 5.00	< 5.00	26	16	0
O=C(Oc1cccc(/C=C2\N=C3SCCCN3C2=O)c1)c1ccc(Cl)cc1	4.84	< 5.00		24	< 5.00	12	0	< 5.00	< 5.00	31	16	0
CCOC(=O)C1CN2C(=NC(=O)C2(c2ccccc2)c2ccccc2)S1 (stereo unspecified)	< 5.00	< 5.00	0	0	< 5.00	26	-5	< 5.00	< 5.00	58	41	7
O=C1/C(=C/c2cccc(OCc3ccccc3Cl)c2)N=C2SCCCN12	5.78				< 5.00	0	9	< 5.00	≤ 5.00	10	45	8
CCOC(=O)COc1cccc(/C=C2\N=C3SCCCCN3C2=O)c1	< 5.00	< 5.00	22	27	< 5.00		39	5.32	< 5.00	0	4	19
CN(C)c1ccc(/C=C2\N=C3SCCCN3C2=O)cc1	< 5.00	< 5.00	13	6	4.78	29		< 5.00	< 5.00	20	13	17
O=C1/C(=C/c2ccc(Cl)cc2)N=C2SCCCN12	< 5.00	< 5.00	18	15	< 5.00	25	23	< 5.00	< 5.00	0	35	13
O=C1/C(=C/c2ccccc2F)N=C2SCCCN12	< 5.00		17		< 5.00	13	0	< 5.00	5.25	0		6
CCCCC/C=C\C/C=C\C/C=C\C/C=C\CCCC(=O)NCC(=O)O [ARACHIDONOYL GLYCINE]	< 5.00		0		< 5.00	43	36	< 5.00	< 5.00		6	
O=C1N=C2SCCN2C1(c1ccccc1)c1ccccc1	< 5.00	< 5.00	0	13	< 5.00	30	6	< 5.00	< 5.00	50	31	21
O=C1N2CCSC2=NC1(c1ccccc1)c1ccccc1	< 5.00	< 5.00	12	15	< 5.00		3	4.68	< 5.00	50	39	12
COc1cccc(/C=C2\N=C3SCCCN3C2=O)c1OC	< 5.00		10		< 5.00	18	15	< 5.00	4.79	0		10
O=C1/C(=C/c2ccc([N+](=O)[O-])cc2)N=C2SCCCN12	< 5.00	< 5.00	20	23	< 5.00	0	20	< 5.00	< 5.00	39	12	0
O=C1N=C2SCCCN2/C1=C\C=C\c1ccccc1	< 5.00	< 5.00	2		< 5.00	26	19	< 5.00	< 5.00	59	0	9
CCOC(=O)C1CN2C(=O)C(c3ccccc3)(c3ccccc3)N=C2S1 (stereo unspecified)	< 5.00	< 5.00	0	38	< 5.00	2	0	< 5.00	< 5.00	39	10	11
COc1ccc(/C=C2\N=C3SCCCN3C2=O)cc1	< 5.00	< 5.00	10	5	< 5.00	39	6	< 5.00	< 5.00	37	16	0
O=C1/C(=C/c2ccc(Cl)cc2Cl)N=C2SCCCN12	< 5.00		14		< 5.00	8	24	< 5.00	5.17	0		0
O=C1/C(=C/c2cccc(OCc3ccc(Cl)c(Cl)c3)c2)N=C2SCCCN12	5.21	< 5.00			< 5.00	15	0	< 5.00	4.93	4		0
COc1ccccc1/C=C1\N=C2SCCCN2C1=O	< 5.00	< 5.00	0	4	< 5.00	4	27	< 5.00	< 5.00	12	33	0
O=C1/C(=C/c2ccc(-c3ccccc3)cc2)N=C2SCCCCN12	< 5.00	< 5.00	37	0	5.27	-5		< 5.00	< 5.00	30	0	6
C/C(=C1/N=C2SCCCCN2C1=O)c1ccccc1	< 5.00	< 5.00	4	3	< 5.00	10	17	< 5.00	< 5.00	1	25	14
O=C1/C(=C/C=C/c2ccccc2)N=C2SCCCN12	< 5.00	< 5.00	0	18	< 5.00	16	37	< 5.00	< 5.00	29	27	7
O=C1/C(=C/c2c(Cl)cccc2Cl)N=C2SCCCN12	< 5.00		0		< 5.00	14	4	< 5.00	< 5.00	15	0	12
COc1ccc(/C=C2\N=C3SCCCN3C2=O)cc1OC	< 5.00	< 5.00	2	3	< 5.00	7	18	< 5.00	< 5.00	6	12	0
Cc1ccc(C(=O)Oc2cccc(/C=C3\N=C4SCCCCN4C3=O)c2)cc1	5.19	< 5.00		4	5.59	35		< 5.00	< 5.00	25	32	0
